Laboratory results published in the METLIN SMRT retention time set (Domingo-Almenara et al. 2019).

experiment: gradient 5% acetonitrile 3 min, to 50% in 2 min, to 85% in 15 min, held 3 min, 100 µL/min; conditions: column: Zorbax Extend-C18 2.1 x 50 mm; eluents: water / acetonitrile, 0.1% formic acid
Outline: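 Using water and acetonitrile that each contained 0.1% formic acid, mixtures of ~100 pure standards were separated at 100 μL/min on a Zorbax Extend-C18 column (2.1 × 50 mm, 1.8 μm). The HPLC fed a quadrupole time-of-flight mass spectrometer working in positive and negative ionization mode, with dead and dwell volumes of 40 μL and 900 μL. Data were acquired over 3 months. Retention time was read from computationally picked adduct peaks after manual inspection of each.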

| RP-LC retention time [s] | Compound |
| --- | --- |
| 732 | CCNc1nc(C)cc(N2CCN(S(=O)(=O)c3ccccc3C(F)(F)F)CC2)n1 |
| 651 | O=C1NC(C(=O)NC2CCCCC2)Cn2cccc21 (stereo unspecified) |
| 865 | Cc1cccc(C)c1-n1ccn(Cc2nc(-c3ccccc3)no2)c(=O)c1=O |
| 614 | CC(C)CC(=O)Nc1ccc(N2CCN(CC(=O)N3CCCC3)CC2)cc1C(=O)O |
| 1060 | CC(=O)c1cccc(NC(=O)Cn2c(-c3ccc(Cl)cc3)nc(C)cc2=O)c1 |
| 668 | Cc1c(Cl)cccc1NC(=O)NC1CCN(c2cc(N3CCCC3)cnn2)C1 (stereo unspecified) |
| 666 | Cn1nc(C(=O)N2CCCC(C(=O)NC3CC3)C2)c2c1CCN(C(=O)Cc1cccc(F)c1)C2 (stereo unspecified) |
| 814 | CCc1cccc(C)c1Nc1c(-c2ccc(C(=O)NC(C)C)cc2)nc2cnccn12 |
| 839 | Cc1cccc(OCc2nc(-c3ccc4ncn(C(C)C)c4c3)no2)c1 |
| 1040 | Cc1c(C(=O)NCc2ccccc2Br)cc(-c2ccccc2)n1C |
| 847 | CC(C)Cn1nc2n(c1=O)CCN(S(=O)(=O)c1ccccc1C(F)(F)F)CC2 |
| 1090 | CCCN1C(=O)COc2ccc(-c3csc(NC(=O)/C=C/c4ccc(OCC)c(OC)c4)n3)cc21 |
| 1160 | Cc1ccc(-n2c(N3CCCC(C(=O)Nc4ccc(C)c(Cl)c4)C3)nc3ccsc3c2=O)cc1 (stereo unspecified) |
| 1100 | O=C1N(c2cccc(Cl)c2)c2ncccc2S(=O)(=O)N1Cc1ccccc1 |
| 817 | Cc1cc(C)cc(NC(=O)N2CCC(n3cnc4ccc(Cl)cc4c3=O)CC2)c1 |
| 894 | Cc1cc2c(c(=O)n(-c3ccccc3)c(=O)n2CC(=O)Nc2ccc(Br)cc2F)n1C |
| 884 | COc1ccc(N2CC(c3nc(-c4ccc(OC)c(OC)c4)no3)CC2=O)cc1Cl (stereo unspecified) |
| 900 | CCc1csc(-c2ccc(N3CCN(C(=O)c4cccs4)CC3)nc2)n1 |
| 839 | CC(C)CC(=O)Nc1ccc(-n2cnc(C(=O)N3CC(C)CC(C)C3)c2)nc1 (stereo unspecified) |
| 729 | CCN(CC)CCCNC(=O)c1cn(C)nc1S(=O)(=O)N1CCN(c2ccc(Cl)cc2)CC1 |
| 809 | Cc1ccc(C2=NC3(CCN(C(=O)c4ccc5ccccc5n4)CC3)ON2)cc1 |
| 600 | O=C(NCC(=O)N1CCN(c2ccccn2)CC1)c1cc2ccccc2[nH]1 |
| 646 | Oc1ccc(-c2csc(Nc3ccccn3)n2)cc1 |
| 858 | O=C(C1CC1)N1CCc2sc(S(=O)(=O)Nc3ccccc3Br)cc2C1 |

The next lines start with the molecule.

| Compound | RP-LC retention time [s] |
| --- | --- |
| O=C(Nc1nc2ccc([N+](=O)[O-])cc2s1)c1ccc(Br)s1 | 1040 |
| Cc1ccc(OCC(=O)N2C[C@@H]3C[C@H]2C[C@@H]3NS(=O)(=O)c2ccccc2)cc1 | 764 |
| O=C(Nc1ccc(Nc2ccncc2)cc1)c1ccc(Nc2ccnc3ccc([N+](=O)[O-])cc23)cc1[N+](=O)[O-] | 651 |
| COc1ccc(N2CCN(C(=O)CN3CCN(Cc4ccccc4)C3=O)CC2)cc1 | 714 |
| COCCN1C(=O)c2ccccc2C(C(=O)NCc2ccccn2)C1c1cccs1 (stereo unspecified) | 642 |
| O=C(CN1C(=O)CSCC1=O)Nc1ccc2c(c1)OCO2 | 638 |
| O=C(Nc1ccccc1)Nc1ccccn1 | 736 |
| Cc1c(S(=O)(=O)CCNC(=O)Nc2ccc3c(c2)OCO3)c2ccccc2n1C | 729 |
| COc1cc(CNC(=O)CCCC/C=C\C(C)C)ccc1O | 947 |
| Cc1ccc(Oc2nccnc2N2CCCC(C(=O)Nc3ccc(Br)c(C)c3)C2)cc1 (stereo unspecified) | 1290 |
| O=[N+]([O-])c1ccc(-c2nc(NCCCO)c3ccccc3n2)cc1 | 595 |
| Cc1cc(NC(=O)CSc2cc(-c3ccccc3)ncn2)no1 | 780 |
| CCOc1ccc(/C=C/c2nc(C#N)c(NCCN(C)C)o2)cc1 | 668 |
| O=c1c2cnc3ncnn3c2ccn1C1CC1 | 583 |
| Cc1ccc2c(c1)N(S(C)(=O)=O)CCC(C(=O)Nc1cccc(Cl)c1)O2 (stereo unspecified) | 1020 |
| CC1CCN(S(=O)(=O)c2cccn(CC(=O)NCCC3=CCCCC3)c2=O)CC1 | 878 |
| O=C(Nc1ccc2nnc(-c3ccc(C(=O)N4CCSCC4)cc3)n2c1)C1CCC1 | 885 |
| COc1ccc(OC)c(NC(=O)Cn2cnc3cc4c(cc32)OCCO4)c1 | 641 |
| Cn1c(=O)c(N2CCC(NC(=O)Nc3cccc(Br)c3)CC2)nc2ccccc21 | 965 |
| CCOc1ccccc1NC(=O)N1CCN(Cc2nc3cc(Cl)ccc3o2)CC1 | 867 |
| O=C(Cn1c(=O)c(CCC(=O)NC2CCCC2)nc2ccccc21)Nc1ccc(F)cc1 | 808 |

| Compound | RP-LC retention time [s] |
| --- | --- |
| CCN1C(=O)COc2ccc(-c3noc(-c4ccc(CS(=O)(=O)c5ccccc5)cc4)n3)cc21 | 1060 |
| Cn1c(C(=O)NC2CCCCCC2)cc2sccc21 | 1020 |
| O=C(c1ccco1)N1CCCC(c2nnc(-c3cccs3)o2)C1 (stereo unspecified) | 690 |
| Cc1cccc(NC(=O)C2CCc3nc(N4CCOCC4)ncc3C2)c1 (stereo unspecified) | 786 |
| O=C(Cc1csc2nc(-c3ccccc3)cn12)NC1CCCCCC1 | 808 |
| O=C(Cc1c[nH]c2ccccc12)N1CCC(c2noc(C3CC3)n2)C1 (stereo unspecified) | 744 |
| CCOCCCNC(=O)c1c(N2CCCC2=O)c2cc(OC)ccc2n1CC | 761 |
| O=C(NCc1ccc(N2CCCC2)nc1)c1cccc(Br)c1 | 646 |
| COc1ccc(-c2csc(NC(=O)c3ccc4c(c3)OCCO4)n2)cc1OC | 963 |
| Cc1cnc(C2CC2)n1CCNS(=O)(=O)c1ccccc1F | 587 |
| O=C(CSCc1ccccc1)NCC1(c2cccs2)CCOCC1 | 819 |
| COc1ccc(OCC(=O)Nc2ccc(-c3nc(-c4ccc(OC)cc4)no3)cc2)cc1 | 1180 |
| O=C(Cn1c2c(c(=O)n(C3CCCCC3)c1=O)CCC2)NCc1ccco1 | 764 |
| COc1cc(Cl)c(CC(=O)c2c[nH]c3ccccc23)cc1OC | 883 |
| CC(=O)Nc1ccc2c(c1)CN(C(=O)c1ccccc1Cl)C(C(=O)N1CCCC1)C2 (stereo unspecified) | 657 |
| COc1cc(OC)cc(C(=O)N2CCC3(C2)C(=O)Nc2ccc(OC)cc23)c1 (stereo unspecified) | 710 |
| CC(NC(=O)CCc1ccccc1)C(=O)Nc1nc2ccccc2[nH]1 (stereo unspecified) | 654 |
| Cc1cccc(CNC(=O)C2(C)Oc3cccnc3NC2=O)c1 (stereo unspecified) | 704 |
| c1ccc(-c2nc3nccc(-c4ccccn4)n3n2)cc1 | 820 |
| CC(C)c1nnc2n1CCN(C(=O)COc1cccc(Cl)c1)C2 | 667 |
| Cc1nc([C@@H]2CN(C(=O)c3cccn3C)C[C@H]2C(N)=O)n[nH]1 | 576 |
